Values joined by “and” are separate entries in the source; they are usually repeats but may differ in a detail not shown here. Equal values may be shown once.
What was measured:
[1] = Plasma level of free and total carvacrol after oral oregano extract 4 (LC/MS/MS); assay type: in vivo, rat; conditions: individual animals
Method: 4 male and 4 female rats received a single dose of 800 mg of oregano extract 4 per kg body weight by oral gavage, respectively. The application solution was prepared in corn oil at a concentration of 200 mg extract per gram formulation.
The sample analysis was performed with a liquid chromatography—tandem mass spectrometry (LC/MS/MS) system, using a column switching system for online cleaning and desalting of the samples.
After addition of internal standard (D2-thymol) and protein precipitation (in case of “free” analyte) or pre-digesting by β-glucuronidase followed by protein precipitation (in case of “total” analyte), the samples were injected on a Waters XTerra™ MS C18 guard-column used as purification column, then transferred onto a Waters XTerra™ C18 column. Detection was performed using tandem mass spectrometry in MRM mode.
Calibration and quality control samples were prepared in 5% Albumin bovine serum solution and human plasma.

mouse = experiment: Light Dark Box Test in the mouse; assay type: in vivo; conditions: 16 mg/kg i.p. −30 min; for NUMBER OF CROSSINGS mean ± s.e.m. / TIME SPENT IN LIGHT COMPARTMENT (s) mean ± s.e.m.: 3-minute test, 15 mice
Text: The method, which detects anxiolytic activity, follows that described by Crawley, 1981 Pharmacol. Biochem. Behav., 15: 695-699. Anxiolytics increase the time spent in the light compartment.
Animals were placed into the light compartment of a 2-compartment box with one half light and open (25×27×27 cm) and the other half dark and closed (20×27×27 cm). The time spent in each compartment, as well as the number of times the animal crosses from one side to the other, is scored during a 3-minute test. 15 mice were studied per group. The test was performed blind.
Oregano extract 1 was evaluated at 3 doses (10, 30 and 60 mg/kg), administered i.p. 30 minutes before the test, and compared with a vehicle control group. Oregano extract 1 was dissolved in a saline solution containing 3% (v/v) DMSO and 3% (v/v) Tween® 80 (“vehicle”). The control group was administered vehicle, venlafaxine (16 mg/kg i.p) was used as comparison substance and clobazam (16 mg/kg i.p) was used as reference substance, all being administered i.p., 30 minutes prior to the test.

mice [2] = experiment: Marble burying test; assay type: in vivo, mouse; conditions: for NUMBER OF MARBLES COVERED BY SAWDUST Mean ± s.e.m.: 25 marbles, 30-minute test, 15 mice
Method: The method applied here follows that described by Broekkamp et al. 1986, supra. Mice (n=15 per treatment group) were individually placed in transparent plastic cages (33×21×18 cm) with 5 cm of sawdust on the floor and 25 marbles (diameter 1 cm) grouped in the centre of the cage. A second, up-tamed, cage served as a lid. The number of marbles covered by sawdust (by at least two-thirds) was counted at the end of the 30-minute test period. Tests were performed by investigators blind to the drug treatment protocol.
Prior to testing, all test cages and marbles were “impregnated” by leaving 10 naive mice in each cage for 15 minutes.
Oregano extract 1 was evaluated at 10, 30 and 60 mg/kg, administered i.p. 30 minutes before the test, and compared with a vehicle control group. Oregano extract 1 was dissolved in a saline solution containing 3% (v/v) DMSO and 3% (v/v) Tween® 80 “vehicle”. The control group were administered vehicle in the same manner, while fluoxetine (32 mg/kg), administered under the same experimental conditions, was used as a reference substance. Data were analyzed by comparing treated groups with vehicle control using unpaired Student's t-tests.

[3] = test system: hippocampal serotonin (5HT) levels; experiment: Hippocampal serotonin levels by in vivo microdialysis; design: species or system rat; conditions: cumulative 5HT in dosing period, n = 5-6 rats
Method: Male Sprague-Dawley rats (250-320 g) were housed in groups of 4-5 under conditions of controlled temperature (21±2° C.) and humidity (55±10%) with free access to food and water (lights on 07.00-19.00). Rats were anaesthetised using chloral hydrate (400 mg/kg i.p.) and a single microdialysis probe (BASi type MD2200, 2 mm membrane, 30,000 dalton cut-off) implanted in the dorsal hippocampus using a stereotaxic frame at the following coordinates (rostro-caudal—4.5 mm; media-lateral—2.5 mm; dorso-ventral—4.5 mm from bregma and dura surface according to Paxinos & Watson 6) and fixed in position with dental cement. Body temperature was maintained at 36° C. using a heating pad and monitored via a digital rectal thermometer. The microdialysis probe was perfused with artificial cerebrospinal fluid (aCSF) at 1 μl/min and extracellular monoamine levels determined by collection of perfusate samples every 15 min and assayed using high-performance liquid chromatography (HPLC) with electrochemical detection.
The HPLC mobile phase (0.5 mM EDTA, 0.1M monochloroacetic acid pH 3.1, 0.15 g/L sodium octyl sulphate, 5% acetonitrile, 0.7% tetrahydrofuran) was pumped through the system at 70 μl/min. Monoamines were separated using a reverse-phase 1×100 mm ODS 3 mm microbore column with 5 μl injection loop and detected using a Epsilon electrochemical detector (BAST) with a glassy carbon electrode set at +650 mV versus Ag/AgCl reference electrode. Dialysate peaks were identified by comparing peak elution times with reference standards and quantified according to measurement of peak area using linear regression analysis. The detection limits for 5HT and SHIAA were defined as the sample amount producing a peak area twice that of the background noise per unit time and were approximately 0.1 fmol/sample in both cases. […]
For routine assay, two rats were prepared of which one was used to test the oregano extract and the other a control (vehicle) sample. […] Data from replicate studies for each compound are therefore expressed as % Basal level, as is normal practice for microdialysis studies. […]

mice [4] = experiment: Porsolt's Forced Swim Test (Behavioral Despair Test), i.p.; assay type: in vivo, mouse; conditions: 16 mg/kg i.p., −30 min, 15 mice
Method: The test, which detects antidepressant activity, was carried out as described by Porsolt et al supra. Mice which are forced to swim in a situation from which they cannot escape rapidly become immobile. Antidepressants decrease the duration of immobility.
Mice were individually placed in cylinders (Height=24 cm, Diameter=13 cm) containing 10 cm water (22° C.) from which they could not escape. The mice were placed in the water for 6 minutes and the duration of immobility during the last 4 minutes was measured.
15 mice were studied per each of the four groups.
Oregano extract 1 was evaluated at 3 doses (10, 30 and 60 mg/kg), administered i.p. 30 minutes before the test, and compared with a control group, administered vehicle in the same manner. The thus administered […] was dissolved in vehicle (saline solution containing 3% (v/v) DMSO and 3% (v/v) Tween® 80). Venlafaxine (16 mg/kg, i.p.), as comparison substance, and imipramine (32 mg/kg, i.p.), as reference compound, were administered under the same experimental conditions.
Data were analyzed by comparing the treated groups with the control group using unpaired Student's t tests and are presented in Table 3.

Structure (SMILES): Cc1ccc(C(C)C)cc1O [Carvacrol]
- Free Carvacrol (ng/mL) in plasma ([1]; female rats, 0.5 h after single 800 mg/kg oregano extract 4 by oral gavage in corn oil): 5120 ng/mL and 4090 ng/mL and 50100 ng/mL and 30.9 ng/mL
- Free Carvacrol (ng/mL) in plasma ([1]; female rats, 1 h after single 800 mg/kg oregano extract 4 by oral gavage in corn oil): 6050 ng/mL and 3610 ng/mL and 192 ng/mL
- Free Carvacrol (ng/mL) in plasma ([1]; female rats, 2 h after single 800 mg/kg oregano extract 4 by oral gavage in corn oil): 840 ng/mL and 1360 ng/mL and 64.3 ng/mL
- Free Carvacrol (ng/mL) in plasma ([1]; female rats, 3 h after single 800 mg/kg oregano extract 4 by oral gavage in corn oil): 228 ng/mL and 174 ng/mL
- Free Carvacrol (ng/mL) in plasma ([1]; female rats, 4 h after single 800 mg/kg oregano extract 4 by oral gavage in corn oil): 246 ng/mL and 102 ng/mL and 50.3 ng/mL
- Free Carvacrol (ng/mL) in plasma ([1]; female rats, 6 h after single 800 mg/kg oregano extract 4 by oral gavage in corn oil): 135 ng/mL and 91.9 ng/mL and 48.3 ng/mL
- Free Carvacrol (ng/mL) in plasma ([1]; female rats, 8 h after single 800 mg/kg oregano extract 4 by oral gavage in corn oil): 159 ng/mL and 1630 ng/mL and <LOQ = 10.0 ng/mL
- Free Carvacrol (ng/mL) in plasma ([1]; female rats, 24 h after single 800 mg/kg oregano extract 4 by oral gavage in corn oil): 127 ng/mL and 8.91 ng/mL and <LOQ = 10.0 ng/mL
- concentration at 3 h ([1]; female, rat, plasma, po, 800 mg/kg, Free Carvacrol (ng/mL) in plasma, female rats, 3 h after single 800 mg/kg oregano extract 4 by oral gavage in corn oil): 128 ng/mL
- Free Carvacrol (ng/mL) in plasma ([1]; male rats, 0.5 h after single 800 mg/kg oregano extract 4 by oral gavage in corn oil): 1530 ng/mL and 103 ng/mL and 55.9 ng/mL and 1320 ng/mL
- Free Carvacrol (ng/mL) in plasma ([1]; male rats, 1 h after single 800 mg/kg oregano extract 4 by oral gavage in corn oil): 1150 ng/mL and 1820 ng/mL
- Free Carvacrol (ng/mL) in plasma ([1]; male rats, 2 h after single 800 mg/kg oregano extract 4 by oral gavage in corn oil): 166 ng/mL and 584 ng/mL and 199 ng/mL
- Free Carvacrol (ng/mL) in plasma ([1]; male rats, 3 h after single 800 mg/kg oregano extract 4 by oral gavage in corn oil): 51.5 ng/mL and 58.4 ng/mL and 1580 ng/mL
- Free Carvacrol (ng/mL) in plasma ([1]; male rats, 4 h after single 800 mg/kg oregano extract 4 by oral gavage in corn oil): 30.4 ng/mL and 40 ng/mL and 316 ng/mL
- Free Carvacrol (ng/mL) in plasma ([1]; male rats, 6 h after single 800 mg/kg oregano extract 4 by oral gavage in corn oil): 83.4 ng/mL and 980 ng/mL and 100 ng/mL
- Free Carvacrol (ng/mL) in plasma ([1]; male rats, 8 h after single 800 mg/kg oregano extract 4 by oral gavage in corn oil): 156 ng/mL and 140 ng/mL
- Free Carvacrol (ng/mL) in plasma ([1]; male rats, 24 h after single 800 mg/kg oregano extract 4 by oral gavage in corn oil): <LOQ = 10.0 ng/mL
- concentration at 1 h ([1]; male, rat, plasma, po, 800 mg/kg, Free Carvacrol (ng/mL) in plasma, male rats, 1 h after single 800 mg/kg oregano extract 4 by oral gavage in corn oil): 1790 ng/mL
- concentration at 8 h ([1]; male, rat, plasma, po, 800 mg/kg, Free Carvacrol (ng/mL) in plasma, male rats, 8 h after single 800 mg/kg oregano extract 4 by oral gavage in corn oil): 185 ng/mL
- concentration at 24 h ([1]; male, rat, plasma, po, 800 mg/kg, Free Carvacrol (ng/mL) in plasma, male rats, 24 h after single 800 mg/kg oregano extract 4 by oral gavage in corn oil): 68.1 ng/mL

Structure (SMILES): CN1C(=O)CC(=O)N(c2ccccc2)c2cc(Cl)ccc21 [Clobazam]
- NUMBER OF CROSSINGS % change from control (mouse): +68%
- TIME SPENT IN LIGHT COMPARTMENT % change from control (mouse): +114%
- NUMBER OF CROSSINGS mean ± s.e.m. (mouse): 7.9 ± 0.9
- TIME SPENT IN LIGHT COMPARTMENT (s) mean ± s.e.m. (mouse): 118.4 ± 3.4 s

Structure (SMILES): CNCCC(Oc1ccc(C(F)(F)F)cc1)c1ccccc1 (stereo not drawn) [Fluoxetine]
- NUMBER OF MARBLES COVERED BY SAWDUST % change from control (mice [2]; 32 mg/kg i.p., −30 min): −93%
- NUMBER OF MARBLES COVERED BY SAWDUST Mean ± s.e.m. (mice [2]; 32 mg/kg i.p., −30 min): 1.4 ± 1.0
- 5-HT LEVEL (% basal) Mean ± s.e.m. ([3]; 3 mg/kg i.p., injection 150 min post-surgery): 85 ± 4 % basal
- 5-HT LEVEL (% basal) Mean ± s.e.m. ([3]; 10 mg/kg i.p., injection 210 min post-surgery): 131 ± 9 % basal
- 5-HT LEVEL (% basal) Mean ± s.e.m. ([3]; 30 mg/kg i.p., injection 270 min post-surgery): 160 ± 7 % basal

Structure (SMILES): COc1ccc(C(CN(C)C)C2(O)CCCCC2)cc1 (stereo not drawn) [Venlafaxine]
- DURATION OF IMMOBILITY % change from control (mice [4]): −51%
- DURATION OF IMMOBILITY (s) Mean ± s.e.m. (mice [4]): 80.1 ± 11.1 s
- DURATION OF IMMOBILITY % change from control (mice [4]; listed as venlafaxine): −51%
- NUMBER OF MARBLES COVERED BY SAWDUST % change from control (mice [2]; 16 mg/kg i.p. −30 min): −98%
- NUMBER OF MARBLES COVERED BY SAWDUST Mean ± s.e.m. (mice [2]; 16 mg/kg i.p., −30 min): 0.5 ± 0.3
- NUMBER OF MARBLES COVERED BY SAWDUST % change from control (mice [2]; 16 mg/kg i.p., −30 min, listed as venlafaxine): −98%
- NUMBER OF CROSSINGS % change from control (mouse): −6%
- TIME SPENT IN LIGHT COMPARTMENT % change from control (mouse): 0%
- NUMBER OF CROSSINGS mean ± s.e.m. (mouse): 4.4 ± 0.9
- TIME SPENT IN LIGHT COMPARTMENT (s) mean ± s.e.m. (mouse): 55.2 ± 9.3 s
